According to article PMC3532212 (PLoS ONE, 2012):

What was measured:
[1] = Plasma concentrations during escalating i.v. infusion in anesthetized rats; type: in vivo; conditions: male, Sprague Dawley, plasma, iv, anesthetized rat, BAF312 i.v.
Procedure: The cardiovascular effects of FTY720 and BAF312 were tested in anesthetized rats (180–200 g). In brief, male Sprague Dawley rats (Charles River) were anesthetized with Inactin (110 mg/kg i.p.) and a tracheotomy performed. The femoral artery and veins were catheterized for measurement of mean arterial pressure and heart rate, collection of blood samples at 20-min intervals (0.2 mL/sample), and for compound infusion/hydration as previously described, [24]; blood samples were also withdrawn in vehicle-treated control rats. FTY720, infused as a hydrochloride salt (0.1, 0.3, 1.0 mg/kg/20-min free base equivalent solubilized in a 100% PEG-400 vehicle), or BAF312 (0.5, 1.5, 5.0 mg/kg/20-min solubilized in a 100% PEG-400 vehicle) were administered via three escalating 20-min infusions (0.011 mL/min) followed by a 1-hr post-treatment period. A blood sample was withdrawn at 20, 40, 60, and 120-minutes for analysis of plasma concentrations of the parent compound, and in the case of FTY720, also the phosphorylated metabolite, (S)-FTY720-P. Statistical significance (p<0.05) was based on a t-test comparing treatment change from baseline (baseline was defined as the period from −30 to 0 minutes) vs. vehicle controls change from baseline at each timepoint without adjustment for multiple comparisons. In a separate group of anesthetized rats in which left ventricular (LV) contractility was also recorded with a Millar pressure transducer introduced into the left ventricle, BAF312 was infused in the same dosing regimen as the studies described above (0.5, 1.5, 5.0 mg/kg/20-min solubilized in a 100% PEG-400 vehicle) and effects on LV dP/dtmax were recorded.

[2] = tested on: conscious, telemetry-instrumented rats; experiment: Telemetry-instrumented conscious rats, single oral dose hemodynamics; type: in vivo; conditions: conscious rat, BAF312 0.3, 3.0, 30 mg/kg single oral dose
Procedure: (§1) Mean arterial pressure was assessed in conscious, freely moving male Sprague Dawley rats (n = 6–8/group; Charles River) instrumented with telemetry transmitters (DSI-Ponemah) and housed in metabolism cages as previously described, [26]. Tested compounds were solubilized in a 0.5% Methylcellulose/0.015% Tween 80 vehicle that was also dosed alone (p.o./QD, 5 mL/kg) as a control in the study. FTY720 was administered p.o. at 0.3, 1.0, 3.0, 10.0 mg/kg p.o. as a single dose or p.o./QD at 0.5, 1.5, and 5.0 mg/kg in a chronic study. BAF312 was administered p.o/QD at 0.3, 3.0, and 30 mg/kg as a single dose and in a chronic study. Mean arterial pressure and heart rate are shown as 1-hr and/or 24-hr mean values±SEM as described in the results. Blood samples in satellite rats were withdrawn at various timepoints as described in the results for analysis of plasma concentrations of the parent compound and, in the case of FTY720, also the phosphorylated metabolite, (S)-FTY720-P. Statistical analysis for the single-dose acute studies was based on one-way ANOVA to compare the treatment groups vs. vehicle for each time period after dosing (0–24 hrs, 24–48 hrs, and 48–72 hrs); statistical significance (p<0.05) was detected by Dunnett’s post-hoc test to compare treatment with vehicle controls. The statistical analysis in the chronic studies were based on one-way ANOVA with repeated measures to compare the treatment arms; statistical significance (p<0.05) was detected by Dunnett’s post-hoc test to compare treatment with vehicle controls.

[3] = tested on: mouse and rat experimental autoimmune encephalitis, EAE; parameters: method as in PMID 23436932; conditions: correlated with reduced circulating lymphocytes and monocytes; cited from earlier work
human S1P4 = target: T1, human S1P4 (Homo sapiens, UniProt O95977); experiment: B arrestin recruitment assay, Tango EDG6-bla U2OS cells; type: cell-based
T1 construct: host or cells: U2OS (Tango EDG6-bla)
T1 sequence (O95977 1-384): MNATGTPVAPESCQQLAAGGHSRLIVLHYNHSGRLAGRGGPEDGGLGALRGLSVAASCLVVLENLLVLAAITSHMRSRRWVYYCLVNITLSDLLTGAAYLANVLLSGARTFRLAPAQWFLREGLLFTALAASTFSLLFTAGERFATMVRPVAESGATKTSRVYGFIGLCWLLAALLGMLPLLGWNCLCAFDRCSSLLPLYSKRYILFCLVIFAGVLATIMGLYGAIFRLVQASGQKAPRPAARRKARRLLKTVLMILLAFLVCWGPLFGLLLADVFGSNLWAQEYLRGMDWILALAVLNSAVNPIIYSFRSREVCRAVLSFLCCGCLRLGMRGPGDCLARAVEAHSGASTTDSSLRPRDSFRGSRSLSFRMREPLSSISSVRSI
Procedure: Tango™ EDG1-bla U2OS cells (Human S1P1), Tango™ EDG3-bla U2OS cells (human S1P3), Tango™ EDG6-bla U2OS cells (human S1P4) and Tango™ EDG8-bla U2OS cells (human S1P5) cell lines were cultured and assayed according to manufacturers instructions with one modification; agonists incubated on the cells for 18 hours prior to addition of the GenBlazer substrate. Final DMSO concentration in the assay is 1%.

[4] = Plasma concentrations in repeat-dosing study, satellite rats; type: in vivo, rat; conditions: for concentration at 4 h / concentration at 8 h / concentration at 24 h: male, Sprague Dawley, rat, plasma, po, mean±SEM; for Plasma concentration at Tmax (4 hrs) / Terminal plasma concentration at Tmax: satellite rats; for Plasma concentration at Tmax (4 hrs): day 1; for Terminal plasma concentration at Tmax: last day of study
Procedure: as §1

Question: For `CCc1cc(/C(C)=N/OCc2ccc(C3CCCCC3)c(C(F)(F)F)c2)ccc1CN1CC(C(=O)O)C1` [BAF312], which concentration at 20 min ([1]; end of 0.5 mg/kg/20 min infusion) is on record?
Answer: 1430 ± 707 nM

Question: And the concentration at 40 min ([1]; end of 1.5 mg/kg/20 min infusion)?
Answer: 3220 ± 210 nM

Question: And the concentration at 60 min ([1]; end of 5.0 mg/kg/20 min infusion)?
Answer: 7250 ± 517 nM

Question: What about the concentration at 120 min ([1]; end of 60-min post-treatment period) of the same molecule?
Answer: 2820 ± 276 nM

Question: And the “effect on heart rate” value [2]?
Answer: no statistically significant effect

Question: What about the “effect on mean arterial pressure” value [2] of the same molecule?
Answer: no statistically significant effect

Question: And the “efficacious dose in EAE” value [3]?
Answer: 0.3 mg/kg

Question: What about the “selectivity over S1P4” value (human S1P4; B arrestin EC50s) of the same molecule?
Answer: 100 fold

Question: What about the EC50 (human S1P4; B arrestin, 18 hours agonist incubation) of the same molecule?
Answer: 245 nM

Question: What about the concentration at 4 h ([4]; 0.3 mg/kg/day, BAF312 0.3 mg/kg/d p.o., Terminal (last day), 4 hr post-dose) of the same molecule?
Answer: 81 ± 8 nM

Question: What about the concentration at 8 h ([4]; 0.3 mg/kg/day, BAF312 0.3 mg/kg/d p.o., Terminal (last day), 8 hr post-dose) of the same molecule?
Answer: 54 ± 7 nM

Question: And the concentration at 24 h ([4]; 0.3 mg/kg/day, BAF312 0.3 mg/kg/d p.o., Terminal (last day), 24 hr post-dose)?
Answer: 13 ± 6 nM

Question: And the concentration at 4 h ([4]; 0.3 mg/kg/day, BAF312 0.3 mg/kg/d p.o., Day 1, 4 hr post-dose)?
Answer: 91 ± 7 nM

Question: And the concentration at 8 h ([4]; 0.3 mg/kg/day, BAF312 0.3 mg/kg/d p.o., Day 1, 8 hr post-dose)?
Answer: 65 ± 8 nM

Question: And the concentration at 24 h ([4]; 0.3 mg/kg/day, BAF312 0.3 mg/kg/d p.o., Day 1, 24 hr post-dose)?
Answer: 0 nM

Question: What about the concentration at 4 h ([4]; 3 mg/kg/day, BAF312 3.0 mg/kg/d p.o., Terminal (last day), 4 hr post-dose) of the same molecule?
Answer: 735 ± 73 nM

Question: And the concentration at 8 h ([4]; 3 mg/kg/day, BAF312 3.0 mg/kg/d p.o., Terminal (last day), 8 hr post-dose)?
Answer: 480 ± 33 nM

Question: And the concentration at 24 h ([4]; 3 mg/kg/day, BAF312 3.0 mg/kg/d p.o., Terminal (last day), 24 hr post-dose)?
Answer: 98 ± 8 nM

Question: And the concentration at 4 h ([4]; 3 mg/kg/day, BAF312 3.0 mg/kg/d p.o., Day 1, 4 hr post-dose)?
Answer: 685 ± 113 nM

Question: What about the concentration at 8 h ([4]; 3 mg/kg/day, BAF312 3.0 mg/kg/d p.o., Day 1, 8 hr post-dose) of the same molecule?
Answer: 584 ± 81 nM

Question: And the concentration at 24 h ([4]; 3 mg/kg/day, BAF312 3.0 mg/kg/d p.o., Day 1, 24 hr post-dose)?
Answer: 103 ± 9 nM

Question: And the concentration at 4 h ([4]; 30 mg/kg/day, BAF312 30.0 mg/kg/d p.o., Terminal (last day), 4 hr post-dose)?
Answer: 8330 ± 650 nM

Question: What about the concentration at 8 h ([4]; 30 mg/kg/day, BAF312 30.0 mg/kg/d p.o., Terminal (last day), 8 hr post-dose) of the same molecule?
Answer: 5280 ± 443 nM

Question: And the concentration at 24 h ([4]; 30 mg/kg/day, BAF312 30.0 mg/kg/d p.o., Terminal (last day), 24 hr post-dose)?
Answer: 942 ± 117 nM

Question: What about the concentration at 4 h ([4]; 30 mg/kg/day, BAF312 30.0 mg/kg/d p.o., Day 1, 4 hr post-dose) of the same molecule?
Answer: 6400 ± 390 nM

Question: What about the concentration at 8 h ([4]; 30 mg/kg/day, BAF312 30.0 mg/kg/d p.o., Day 1, 8 hr post-dose) of the same molecule?
Answer: 4820 ± 617 nM

Question: And the concentration at 24 h ([4]; 30 mg/kg/day, BAF312 30.0 mg/kg/d p.o., Day 1, 24 hr post-dose)?
Answer: 721 ± 211 nM

Question: What about the “Plasma concentration at Tmax (4 hrs)” value ([4]; BAF312 0.3 mg/kg/d p.o.) of the same molecule?
Answer: 91 ± 7 nM

Question: What about the “Terminal plasma concentration at Tmax” value ([4]; BAF312 0.3 mg/kg/d p.o.) of the same molecule?
Answer: 81 ± 8 nM

Question: And the “Plasma concentration at Tmax (4 hrs)” value ([4]; BAF312 3.0 mg/kg/d p.o.)?
Answer: 685 ± 113 nM

Question: And the “Terminal plasma concentration at Tmax” value ([4]; BAF312 3.0 mg/kg/d p.o.)?
Answer: 735 ± 73 nM

Question: What about the “Plasma concentration at Tmax (4 hrs)” value ([4]; BAF312 30 mg/kg/d p.o.) of the same molecule?
Answer: 6395 ± 390 nM

Question: What about the “Terminal plasma concentration at Tmax” value ([4]; BAF312 30 mg/kg/d p.o.) of the same molecule?
Answer: 8328 ± 650 nM
